From patent publication US20100190184A1, “SCREENING METHOD UTILIZING NOVEL SUBSTRATE C-RET FOR GAMMA-SECRETASE” (Eisai R & D Management Co., Ltd., priority 2007, published 2010)

Molecular target: T1, γ-secretase (cleavage of rat c-Ret with HA tag in HEK293 cells) (Homo sapiens, UniProt P49768)
T1 construct: endogenous in cells; host or cells: 293/EBNA-1 cell strain (HEK293), transiently transfected with rat c-Ret-HA only
Experiment: Analysis of c-Ret processing in c-Ret-transfected 293/EBNA-1 cell strain (Western blotting with anti-HA antibody)
Type: cell-based
Parameters: dose or concentration left out as unconfirmed
Conditions: Compound E added to culture broth, one day; 293/EBNA-1 (HEK293) cells transfected with rat c-Ret-HA; versus untreated sample
Experimental: Whether or not c-Ret is a substrate for γ-secretase was evaluated using HEK293 cells expressing a gene encoding c-Ret with an HA tag added to its C-terminus, in the presence of a γ-secretase inhibitor. As the γ-secretase inhibitor, (2S)-2-{[(3,5-difluorophenyl)acetyl]amino}-N-[(3S)-1-methyl-2-oxo-5-phenyl-2,3-dihydro-1H-1,4-benzodiazepin-3-yl]propanamide (hereinafter, sometimes referred to as “Compound E”) (Alexis Biochemicals) was used. 293/EBNA-1 cell strain (Invitrogen) was cultured in 6-well dishes containing 10% FBS (Hyclone)/DMEM (Invitrogen) under 5% CO2 at 37° C., followed by transfection thereinto of the gene encoding rat c-Ret with an HA tag added to its C-terminus using Lipofectamine 2000 (Invitrogen). After one day culture under the same conditions, 50 mM Compound E (Alexis Biochemicals) was added to the culture broth. Cells were cultured for another day under the same conditions. Then, the transfected HEK293 cells were collected with PBS (Sigma) and sonicated with a sonicator (Taitec VP-5S) to disrupt cells. Then, the quantity of protein was determined with Protein Assay Kit (BioRad). Samples (2 μg each) were taken from proteins obtained from Compound E-added cells and Compound E-not added cells, respectively, and subjected to SDS-PAGE, followed by Western blotting with an anti-HA antibody (Roche) (final concentration: 0.2 μg/ml). […]

C[C@H](NC(=O)Cc1cc(F)cc(F)c1)C(=O)N[C@H]1N=C(c2ccccc2)c2ccccc2N(C)C1=O [Compound E, (2S)-2-{[(3,5-difluorophenyl)acetyl]amino}-N-[(3S)-1-methyl-2-oxo-5-phenyl-2,3-dihydro-1H-1,4-benzodiazepin-3-yl]propanamide]
effect on cleavage of c-Ret by γ-secretase (c-Ret C terminal fragment band, Western blot): a band around 50 kDa (CTF) was accumulated specifically as a c-Ret undegraded product
